# Assay results taken from paper PMC7472354, “Enhanced Antimicrobial Activity of N-Terminal Derivatives of a Novel Brevinin-1 Peptide from The Skin Secretion of Odorrana schmackeri” (Toxins, 2020).
# Entries after “also recorded” stand apart in the source; their conditions may differ. Where a SMILES comes first, the peptide text is derived from it.
# How the values were obtained:
# horse red blood cells = conditions: 2 h
# MRSA [1] = assay: Time-killing assay; type: cell-based, Staphylococcus aureus; conditions: peptide at 4 × MIC; colony counts on MHA; three independent experiments
# Protocol: The time-killing assays were employed to determine the killing kinetics of the peptides on the selected bacteria strains. The experiment was performed as described previously. In brief, the bacteria culture was prepared the same way as the antimicrobial activity assay. A bacteria suspension (OD600 = 0.1) was mixed with the peptides at the concentration of their corresponding MICs and 4 × MICs. At different time intervals, 10 µL of aliquots of each sample was transferred into a clean tube and a series of 10-fold dilution was prepared in PBS. A volume of 100 µL of diluted bacteria suspension was spread on an MHA plate, and the number of the bacterial colonies that were formed after an overnight-incubation at 37 °C. The bacteria cultured without any treatment was employed as the negative (growth) control. Three experiments were run in triplicate.
# MRSA [2] = assay: Treatment of MRSA-infected Galleria mellonella larvae; type: in vivo; conditions: 10 µL of 10^8 CFU/mL MRSA injected; peptide 25 or 50 mg/kg injected after 2 h; 30 larvae per group
# Protocol: The in vivo study of antimicrobial activity of the peptides was evaluated using the larvae of Galleria mellonella, which was described in the previous study with minor modifications. The larvae of Galleria mellonella (250 ± 25 mg; Livefood UK Ltd., Rooks Bridge, UK) were selected. The MRSA culture was prepared the same way as the antimicrobial activity assay. Then, MRSA cells were collected and washed, and further diluted to 10^8 CFU/mL in the saline. Ten µL of MRSA suspension was injected to the larvae and placed in a petri dish. After 2 h, the MRSA infected larvae were administrated with 10 µL of peptides (25 mg/kg, 50 mg/kg) by injection. Saline and vancomycin (20 mg/kg) (Sigma-Aldrich, UK) were used as the negative control and positive control, respectively. Each sample group contained 10 larvae, and the experiment was repeated three times (30 larvae for each group in total). The survival curves were achieved using Prism (Version 6.0; GraphPad Software Inc., San Diego, CA, USA) and the log-rank test was employed to analyze the significance between the different treatments and the controls. * (p < 0.05), ** (p < 0.01) and *** (p < 0.001) represent statistical significance.
# [3] = Circular dichroism, alpha-helical content (K2D3); type: physicochemical; conditions: CD, 50 µM peptide in 50% TFE in 10 mM NH4AC; helical content calculated with K2D3
# Protocol: To further identify the secondary structure of purified peptides, they were dissolved in 10 mM ammonium acetate (NH4AC) and 50% trifluoroethanol (TFE) in 10 mM NH4AC, respectively, to achieve the concentration of 50 µM. […] The circular dichroism (CD) data of the peptides in TFE solution was submitted to the K2D3 webserver to analyse the α-helical content. Moreover, helical wheel projections of brevinin-1OS and its analogues were conducted (Figure A7) and the physicochemical properties of all peptides are summarized in Table 1.
# Circular dichroism (CD) was employed to determine the secondary structure of the synthetic peptides in the different environment. The peptides were prepared in the aqueous solution, 10 mM NH4AC solution (pH 7.4), or the membrane mimicking solution, 50% TFE in 10 mM NH4AC, at a concentration of 50 µM. The proportion of helical content of each peptide in the 50% TFE in 10 mM NH4AC was calculated using the online server, K2D3 (http://cbdm-01.zdv.uni-mainz.de/~andrade/k2d3/). Physiochemical properties of the helical forming peptides were calculated online by Heliquest (http://heliquest.ipmc.cnrs.fr). Additionally, the secondary structures of peptides were predicted online by I-TASSER Predictions (https://zhanglab.ccmb.med.umich.edu/I-TASSER/).
# MRSA [4] = assay: Skin disinfection test, pig skin model; design: species or system Staphylococcus aureus; conditions: 10 µL peptide at 1 × MIC on MRSA-inoculated pig skin wound, 37 °C, 4 days; SEM
# Protocol: Specifically, pig skin was sterilized before using. The pig skins were cut into small pieces, and then, a rectangular groove was cut using a skin graft. 100 µL of logarithmic MRSA solution was inoculated on the wound, followed by incubating at 37 °C for 30 min. […] The pictures of wounds were captured by the digital camera after washing thrice with PBS, fixed with 2.5% (w/v) glutaraldehyde and dehydrated with a graded ethanol series. Finally, the MRSA cells which had attached to the wounded pig skin were visualized by SEM (Hitachi S-4800, Tokyo, Japan).
SMILES,HC50 (concentration causing 50% haemolysis of the red blood cells) (horse red blood cells) [µM],time to complete killing of MRSA (MRSA [1]) [min],mortality of MRSA-infected larvae (MRSA [2]),α-Helicity [3] [%],MRSA on infected pig skin wound after treatment (MRSA [4])
CC(C)C[C@H](NC(=O)[C@H](C)NC(=O)[C@H](Cc1c[nH]c2ccccc12)NC(=O)[C@H](CCCCN)NC(=O)[C@H](CC(C)C)NC(=O)[C@@H](N)Cc1ccccc1)C(=O)N[C@@H](CCCCN)C(=O)N[C@H](C(=O)N[C@@H](C)C(=O)N[C@@H](C)C(=O)N[C@@H](CCCCN)C(N)=O)C(C)C [OSd] (H-FLKWALKVAAK-NH2),>512,–,–,–,–
CC(C)C[C@H](NC(=O)[C@H](C)NC(=O)[C@H](Cc1c[nH]c2ccccc12)NC(=O)[C@H](CCCCN)NC(=O)[C@@H]1CCCN1C(=O)[C@H](CC(C)C)NC(=O)[C@@H](N)Cc1ccccc1)C(=O)N[C@@H](CCCCN)C(=O)N[C@@H](Cc1c[nH]c2ccccc12)C(=O)N[C@@H](C)C(=O)N[C@@H](C)C(=O)N[C@@H](CCCCN)C(N)=O [OSf] (H-FLPKWALKWAAK-NH2; N-terminus assumed),–,≤ 45,dramatically decreased the mortality; also recorded: reduced the mortality,34.8,almost eradicated
